Among the test systems are NCI-H522 lung; A549 NSCLC; SN12C renal; SK-MEL-28 melanoma; ACHN renal; KM12 colon; TK-10 renal; HT29 colon; HCT-15 colon; RPMI-8226 leukemia; SK-MEL-5 melanoma; NCI-H226 lung; HCC-2998 colon; U251 CNS; BT-549 breast; SF-268 CNS; COLO 205 colon; IGROV1 ovarian; NCI-H460 lung; K-562 leukemia; SNB-75 CNS; MALME-3M melanoma; NCI-H23 lung; MDA-MB-231 breast; OVCAR-8 ovarian; CAKI-1 renal; MDA-MB-435; DU-145 prostate; M14 melanoma; SF-295 CNS; SK-OV-3 ovarian; UO-31 renal; OVCAR-5 ovarian; PC-3 prostate; UACC-62 melanoma; SR leukemia; OVCAR-3 ovarian; SNB-19 CNS; HS 578T breast; HOP-62 NSCLC; UACC-257 melanoma; 786-0 renal; T-47D breast; HL-60(TB) leukemia; A498 renal; OVCAR-4 ovarian; LOX IMVI melanoma; SW-620 colon; MOLT-4 leukemia; MDA-MB-468 breast; SK-MEL-2 melanoma; HCT-116 colon; MCF7 breast; CCRF-CEM leukemia; SF-539 CNS; EKVX NSCLC; HOP-92 NSCLC; RXF 393 renal.

Common to all, as to test: NCI tumour cell line growth inhibition, 48 h

Values joined by “and” are separate entries in the source; they are usually repeats but may differ in a detail not shown here. Equal entries are not always repeated.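 The compound was tested at five concentrations on cells cultured in 96-well plates, with a 48-hour exposure period. GI50: concentration for 50% inhibition of growth. TGI is the concentration that stops growth completely.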

With `CC(=O)Oc1ccccc1C(=O)[Se]C(=NC1CCCCC1)NC1CCCCC1`, the GI50 was 1560 nM in the test with NCI-H522 lung; 3010 nM in the test with A549 NSCLC; 1730 nM with SN12C renal; 1760 nM with SK-MEL-28 melanoma; 1790 nM in the test on ACHN renal; 1830 nM with KM12 colon. The GI50 is 1640 nM in the test with TK-10 renal; 2190 nM with HT29 colon; 1780 nM with HCT-15 colon; 2160 nM in the test on RPMI-8226 leukemia; 1630 nM in the test on SK-MEL-5 melanoma; 1600 nM with NCI-H226 lung. Moreover, the GI50 in the test on HCC-2998 colon was 1720 nM; in the test with U251 CNS, 1720 nM; with BT-549 breast, 1640 nM; in the test on SF-268 CNS it was 2330 nM; with COLO 205 colon it was 1950 nM; in the test on IGROV1 ovarian, 1760 nM. The GI50 with NCI-H460 lung was 1980 nM; in the test on K-562 leukemia, 2090 nM; with SNB-75 CNS, 1370 nM; in the test on MALME-3M melanoma, 1730 nM; in the test on NCI-H23 lung it was 1660 nM; in the test on MDA-MB-231 breast it was 1850 nM. Further, the GI50 in the test with OVCAR-8 ovarian was 1720 nM; in the test on CAKI-1 renal, 1690 nM; in the test on MDA-MB-435, 1790 nM; with DU-145 prostate, 1790 nM; in the test on M14 melanoma, 1690 nM; in the test on SF-295 CNS it was 1610 nM. For the same compound, the GI50 is 1690 nM in the test with SK-OV-3 ovarian; 1620 nM in the test on UO-31 renal; 1690 nM with OVCAR-5 ovarian; 1830 nM with PC-3 prostate; 1670 nM with UACC-62 melanoma; 1960 nM with SR leukemia. For the same compound, the GI50 with OVCAR-3 ovarian was 1840 nM; in the test on SNB-19 CNS, 1670 nM; with HS 578T breast, 2050 nM; with HOP-62 NSCLC, 1700 nM; in the test on UACC-257 melanoma it was 1680 nM; in the test with 786-0 renal it was 1760 nM. Also, the GI50 in the test with T-47D breast was 2000 nM; in the test on HL-60(TB) leukemia it was 1950 nM; with A498 renal it was 2310 nM; with OVCAR-4 ovarian, 1740 nM; in the test on LOX IMVI melanoma, 1650 nM; with SW-620 colon it was 1790 nM. For the same compound, the GI50 in the test on MOLT-4 leukemia was 2390 nM; in the test with MDA-MB-468 breast, 1750 nM; with SK-MEL-2 melanoma, 1640 nM; in the test with HCT-116 colon, 1900 nM; in the test on MCF7 breast, 1820 nM; in the test with CCRF-CEM leukemia, 2030 nM. Further, the GI50 in the test with SF-539 CNS was 1670 nM; in the test on EKVX NSCLC, 1650 nM; in the test with HOP-92 NSCLC, 1810 nM; in the test with RXF 393 renal, 1670 nM. Besides, the TGI in the test with NCI-H522 lung came out at 3030 nM; with A549 NSCLC, 10600 nM; in the test on SN12C renal, 3120 nM; with SK-MEL-28 melanoma it was 3270 nM; in the test with ACHN renal, 3270 nM; in the test with KM12 colon, 3390 nM. Also, the TGI in the test with TK-10 renal was 3030 nM; in the test with HT29 colon, 5480 nM; in the test on HCT-15 colon, 3560 nM; in the test on RPMI-8226 leukemia it was 5390 nM; with SK-MEL-5 melanoma, 3060 nM; with NCI-H226 lung, 3210 nM. The TGI in the test on HCC-2998 colon is 3120 nM; with U251 CNS, 3360 nM; with BT-549 breast, 3070 nM; in the test with SF-268 CNS, 5680 nM; with COLO 205 colon, 4360 nM; in the test with IGROV1 ovarian, 3170 nM. Besides, the TGI with NCI-H460 lung turned out to be 4370 nM; in the test on K-562 leukemia it was 5210 nM; in the test with SNB-75 CNS, 2780 nM; with MALME-3M melanoma, 3200 nM; in the test with NCI-H23 lung it was 3200 nM; in the test on MDA-MB-231 breast, 3580 nM. Moreover, the TGI in the test with OVCAR-8 ovarian was 3140 nM; in the test on CAKI-1 renal, 3110 nM; in the test on MDA-MB-435 it was 3330 nM; in the test with DU-145 prostate it was 3280 nM; with M14 melanoma, 3190 nM; in the test on SF-295 CNS, 3160 nM. For the same compound, the TGI was determined as 3180 nM in the test on SK-OV-3 ovarian; 2970 nM with UO-31 renal; 3230 nM in the test on OVCAR-5 ovarian; 3620 nM with PC-3 prostate; 3290 nM in the test with UACC-62 melanoma; 4710 nM in the test with SR leukemia. The TGI in the test with OVCAR-3 ovarian came to 3390 nM; in the test with SNB-19 CNS, 3100 nM; in the test with HS 578T breast, 5370 nM; in the test with HOP-62 NSCLC it was 3360 nM; in the test with UACC-257 melanoma it was 3150 nM; in the test on 786-0 renal, 3160 nM. The TGI in the test with T-47D breast came out at 5170 nM; in the test on HL-60(TB) leukemia it was 4710 nM; with A498 renal, 6730 nM; in the test with OVCAR-4 ovarian it was 3300 nM; in the test with LOX IMVI melanoma, 3100 nM; in the test with SW-620 colon, 3370 nM. In addition, the TGI in the test with MOLT-4 leukemia is 5560 nM; in the test on MDA-MB-468 breast, 3320 nM; in the test with SK-MEL-2 melanoma, 3150 nM; in the test with HCT-116 colon, 3730 nM; with MCF7 breast, 3400 nM; in the test on CCRF-CEM leukemia, 5050 nM. For the same compound, the TGI with SF-539 CNS was 3040 nM; with EKVX NSCLC, 3060 nM; in the test on HOP-92 NSCLC, 4230 nM; in the test with RXF 393 renal it was 3040 nM.

Take `CN(C)CCCNc1nc2ccccc2c2c(=O)c3cc(F)ccc3sc12`: in the test with MDA-MB-468 breast, the GI50 is 675 nM and the TGI was found to be 2160 nM.

For the compound `COc1cc(C(=O)/C=C/c2c(-c3cccs3)nc3sccn23)cc(OC)c1OC`, in the test on MDA-MB-468 breast, the GI50 is 930 nM and the TGI is 2890 nM.

In the case of `N#Cc1cc(-c2ccnc(Nc3ccc(NC(=O)CCl)cc3)n2)ccc1N1CCCC1`, in the test on MDA-MB-468 breast, the GI50 was 3400 nM and the TGI was determined as 7130 nM.

Consider `COC1=C(C)C(=O)N2[C@@H]1[C@H](c1ccccc1)OC21C=CC(=O)C=C1`, for which, in the test on MDA-MB-468 breast, the GI50 is 2540 nM and the TGI came to 9240 nM.

As to `COc1cc(/C=C/[N+](=O)[O-])c([N+](=O)[O-])cc1OC`, in the test on MDA-MB-468 breast, the GI50 is 1020 nM and the TGI turned out to be 2300 nM.

Take `O=C(c1ccc(Oc2ccccc2)cc1Cl)c1c[nH]c2ncnc(N[C@@H]3CC[C@@H](CO)OC3)c12`: in the test on MDA-MB-468 breast, the GI50 was 1010 nM and the TGI was determined as 3730 nM.

On to `Cn1c([N+](=O)[O-])cnc1/C=C1\Oc2ccc(Br)cc2C1=O`, for which, in the test with MDA-MB-468 breast, the GI50 was 1590 nM and the TGI is 4600 nM.

`O=C1NC(=O)/C(=C/c2ccc3ncccc3c2)S1`: in the test with MDA-MB-468 breast, the GI50 is 9280 nM and the TGI is above 25000 nM.

In the case of `Cc1ccc(NC(=O)c2ccc(CN3CC[C@H](N(C)C)C3)c(C(F)(F)F)c2)cc1Nc1nccc(-c2cncnc2)n1`, in the test on MDA-MB-468 breast, the GI50 is 5050 nM and 7370 nM; the TGI was 18400 nM and > 10000 nM.
